Source: US8722580B2, “Agent for inhibiting cytokinin signaling” (Sumitomo Chemical Company, Limited, priority 2006, dated 2014)

Columns and labels:
[1] = tested on: transformed cell TM182-p415CYC1; assay: Control growth test with transformed yeast cell TM182-p415CYC1 (toxicity to yeast); assay type: cell-based; details: trans-zeatin 0.6 ppm; chemical substance 2 ppm; 30° C., 24 hours; turbidity OD 600
Summary of the method: (§1)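 Relative growth % is derived from blank-corrected OD600 against DMSO wells after 24 h at 30° C, with inhibition given as 100 minus that value. Cells were set to OD600=0.1 with 0.6 ppm trans-zeatin and 2 ppm test substance: CRE1 strain in DOLU+Glu, p415CYC1 toxicity control in DOLU+Gal.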

cytokinin receptor CRE1 [2] = molecular target: T1, cytokinin receptor CRE1 (Arabidopsis thaliana, UniProt Q9C5U0, S567G/T1018A); assay: Inhibition of intracellular signaling from plant-derived cytokinin receptor, growth of transformed yeast cell TM182-CRE1; assay type: cell-based; details: for Relative growth rate (%) in test section of test substance to control section, Transformed cell TM182-CRE1: 30° C., 24 hours, turbidity OD 600
T1 construct: expressed in transfected cells; host or cells: Saccharomyces cerevisiae TM182 (sln1Δ) transformed with p415CYC-CRE1
T1 sequence (Q9C5U0 24-1080 S567G/T1018A): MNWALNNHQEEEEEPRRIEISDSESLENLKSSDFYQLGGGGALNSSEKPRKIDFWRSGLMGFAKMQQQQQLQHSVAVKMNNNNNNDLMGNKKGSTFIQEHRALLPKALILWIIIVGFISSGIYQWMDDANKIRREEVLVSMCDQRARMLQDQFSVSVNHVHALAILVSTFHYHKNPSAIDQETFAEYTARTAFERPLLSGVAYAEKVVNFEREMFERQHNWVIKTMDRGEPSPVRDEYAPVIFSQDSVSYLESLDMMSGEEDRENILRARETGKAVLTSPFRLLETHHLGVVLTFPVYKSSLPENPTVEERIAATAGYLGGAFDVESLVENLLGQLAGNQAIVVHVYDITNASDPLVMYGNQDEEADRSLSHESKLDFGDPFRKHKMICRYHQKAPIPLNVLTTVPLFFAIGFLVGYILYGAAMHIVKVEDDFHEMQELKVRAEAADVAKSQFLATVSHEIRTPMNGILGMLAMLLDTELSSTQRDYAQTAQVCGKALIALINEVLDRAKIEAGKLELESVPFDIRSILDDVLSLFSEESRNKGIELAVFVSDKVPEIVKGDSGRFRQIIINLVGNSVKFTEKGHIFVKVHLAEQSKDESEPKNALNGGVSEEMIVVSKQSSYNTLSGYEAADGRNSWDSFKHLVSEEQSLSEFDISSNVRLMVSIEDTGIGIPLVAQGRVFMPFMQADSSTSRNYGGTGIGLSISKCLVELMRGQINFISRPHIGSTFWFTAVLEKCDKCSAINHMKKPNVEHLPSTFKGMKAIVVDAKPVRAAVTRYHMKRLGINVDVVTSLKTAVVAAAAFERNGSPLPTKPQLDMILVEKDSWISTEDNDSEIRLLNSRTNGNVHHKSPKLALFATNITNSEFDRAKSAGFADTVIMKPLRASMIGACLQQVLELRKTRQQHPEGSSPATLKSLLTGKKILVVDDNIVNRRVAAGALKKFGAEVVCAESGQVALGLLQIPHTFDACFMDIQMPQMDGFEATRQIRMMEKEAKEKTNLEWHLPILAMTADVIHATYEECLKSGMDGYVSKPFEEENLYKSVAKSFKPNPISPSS
Summary of the method: as §1

Arabidopsis thaliana [3] = assay: Root growth-promoting activity test (Example 9); assay type: in vivo; details: test final concentration 0.625 ppm (concentration with highest root growth rate); main root length vs control section, 22° C., 10 days
Summary of the method: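 Compounds at 0.001–10 ppm final (added in DMSO) were mixed into Enshi medium, and Arabidopsis thaliana seeds were cultured in it for 10 days at 22° C under light. Root growth rate (%) is the treated mean main-root length divided by the control mean, from eight repeats.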

Arabidopsis thaliana [4] = assay: Root growth-promoting activity test (Example 22); assay type: in vivo; details: test final concentration 0.625 ppm (highest root growth rate); main root length vs control section, 22° C., 10 days
Summary of the method: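 Arabidopsis thaliana seeds (10-20 per tube) grown in sterile Enshi standard medium containing compound at 0.001 ppm to 10 ppm final (DMSO vehicle), 22 °C, 10 days in light. Main root length measured, eight repeats averaged; root growth rate (%) = treated/control mean main root length ×100.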

cytokinin receptor CRE1 [5] = molecular target: T1, cytokinin receptor CRE1; assay type: binding; details: radiolabel 2IP 10 nM; test substance 10 μM
Protocol: As the cytokinin labeled with a radioisotope of hydrogen, tritium so as to become highly radioactive, [3H]N-6-(isopent-2-enyl)Adenine manufactured by Amersham Biosciences (hereinafter, referred to as radiolabel 2IP) was used.
First, 100 μg of the membrane protein fraction of the transformed cell TM182-p415CYC1, a radiolabel 2IP dilution at a predetermined concentration with a phosphate buffer and 1 μl of a test substance dilution at a predetermined concentration with DMSO were mixed in a phosphate buffer to prepare 100 μl of a reaction liquid. Next, the reaction liquid was allowed to stand in ice for 1 hour and then filtered with a glass filter GF/B (manufactured by Whatman) to collect a membrane protein fraction of the transformed cell TM182-p425GPD-CRE1. The glass filter was immersed in a liquid scintillation cocktail Ultima Gold (manufactured by PerkinElmer Co., Ltd.), and radioactivity was measured by a liquid scintillation counter. […] In order to eliminate influence of radioactivity due to nonspecific binding of the radiolabel 2IP, a value of radioactivity obtained in the test using the membrane protein fraction of the transformed cell TM182-p425GPD was subtracted from a value of radioactivity obtained in the test using the membrane protein fraction of the transformed cell TM182-p425GPD-CRE1.

rice [6] = assay: Root growth-promoting activity using rice, seed growth pouch (Example 11); assay type: in vivo, Oriza sativa L. japonica; details: 25° C., 7 days
Protocol: With respect to the chemical substance Ic3-1 and the chemical substance Ic7-1 (which inhibit intracellular signaling from a plant-derived cytokinin receptor of a cell) selected in Example 7, a main root-growth promoting activity was evaluated using rice (Oriza sativa L. japonica). Aqueous solutions of the chemical substance having different concentrations (10 ppm, 25 ppm, each containing 0.1% DMSO) were prepared. A naper towel was impregnated with 17 ml of the chemical solution, wherein the heavy paper was placed in a seed growth pouch for observation of root growth (177 mm×163 mm, manufactured by Daiki Rika Kogyo Co., Ltd.), and 3 rice seeds were sowed on the paper towel. The pouch was put in a plastic container, and then sealed. After culture in the light at 25° C. for 7 days, the length of a main root was measured. An average of 3 repeats was determined and a root growth rate was determined by the following equation. Root growth rate (%)=(Average main root length in chemical substance-treated section)/(Average main root length in control section)×100−100

[7] = tested on: hypocotyl of Arabidopsis thaliana; assay: Plant differentiation-promoting activity, adventitious root formation from hypocotyl (Example 13); assay type: in vivo, Arabidopsis thaliana Columbia; details: agar medium with trans-zeatin 0.01 ppm; all test sections, final concentration 6 ppm, 2 ppm, 0.6 ppm or 0.2 ppm
Protocol: With respect to the chemical substance Ic3-1 and the chemical substance Ic7-1 (which inhibit intracellular signaling from a plant-derived cytokinin receptor of a cell) selected in Example 7, a plant differentiation-promoting activity was evaluated by examining an adventitious root formation activity using an hypocotyl of Arabidopsis thaliana Columbia.
First, an agar medium for sowing Arabidopsis thaliana was prepared. The agar medium contains, as components per 1 liter of an aqueous solution, 1 parcel of mixed salts for Murashige-Scoog plant medium (Wako Pure Chemical Industries, Ltd.) for 1 liter, 10 g of sucrose, 10 ml of an aqueous 5% MES (2-(N-Morpholino)ethanesulfonic acid) solution adjusted to pH 5.7 with potassium hydroxide, 100 mg of inositol, 1 ml of vitamins stock solution (10 g of thiamine hydrochloride, 1 g of pyridoxine hydrochloride, and 1 g of nicotinic acid per 1 liter of an aqueous solution) and 8 g of agar. Then, the agar medium was subjected to autoclave at 120° C. for 20 minutes, dispensed to circular petri dishes, and then solidified.
Seeds of Arabidopsis thaliana (about 25 μl) were put in a 1.5 ml tube. Thereto was added 1 ml of a 10-fold diluted solution of a sodium hypochlorite solution (Nacalai Tesque) with sterilized distilled water. The seed were sterilized while stirring for about 1 minute with a tube mixer (TOMY, MT-360, MIXING SPEED10). […]

rice [8] = assay: Root growth-promoting activity by rice seed treatment (Example 12); assay type: in vivo, Oriza sativa L. japonica; details: rice seeds treated with 10,000 ppm acetone solution; 4 days dark at 30° C. then 35 days greenhouse
Protocol: With respect to the chemical substance Ic3-1 and the chemical substance Ic7-1 (which inhibit intracellular signaling from a plant-derived cytokinin receptor of a cell) selected in Example 7, a main root-growth promoting activity induced by seed treatment was evaluated using rice (Oriza sativa L. japonica). The chemical substance was dissolved in acetone to prepare a 10,000 ppm solution. The acetone chemical substance solution (300 μl) thus prepared was put in an eppendorf tube. Then, 15 seeds were put in the eppendorf tube. The resulting mixture was mixed for about 30 seconds. The seeds thus chemical-treated were spread and dried on a filter paper.
About 820 ml of culture soil was placed in a plastic container (120 mm in length, 97 mm in height) with a hole in the bottom. The chemical-treated seeds were sowed in the plastic container (15 seeds per plastic container). The seeds were cultivated in a dark place at 30° C. for 4 days and then cultivated in a greenhouse for 35 days. Roots of the plant thus cultivated were removed and the soil adhered to the plant was washed away, followed by freeze-drying. Then, the weight of roots after freeze-drying was measured. A test was repeated 3 times for each treatment section, and an average was determined.

[9] = trans-zeatin 0.6 ppm, chemical substance 2 ppm

SMILES | Relative growth rate (%) in test section of test substance to control section, Transformed cell TM182-p415CYC1 [1] [%] | Relative growth rate (%) in test section of test substance to control section, Transformed cell TM182-CRE1 (cytokinin receptor CRE1 [2]; [9]) [%] | Activity (%) of test substance for inhibiting intracellular signaling from plant-derived cytokinin receptor of cell (cytokinin receptor CRE1 [2]; trans-zeatin 0.6 ppm, chemical substance 2 ppm, = 100 − relative growth rate of TM182-CRE1) [%] | Root growth-promoting activity (root growth rate) (Arabidopsis thaliana [3]) [%] | Root growth-promoting activity (root growth rate) (Arabidopsis thaliana [4]) [%] | radioactivity of bound radiolabel 2IP compared with DMSO only or abscisic acid (cytokinin receptor CRE1 [5]) | melting point [°C] | main root growth increase relative to the control section (rice [6]; 10 ppm) [%] | main root growth increase relative to the control section (rice [6]; 25 ppm) [%] | adventitious root formation from the hypocotyl portion [7] | inhibition at 2 ppm (cytokinin receptor CRE1 [2]; read-out: Activity (%) of test substance for inhibiting intracellular signaling from plant-derived cytokinin receptor of cell) [%] | dry weight of roots per plant, % of the control section (rice [8]) [%]
OCCCCNc1nc(-c2ccccc2)c2cc(Cl)ccc2n1 [Ic3-4] | 106.4 | 1.4 | 98.6 | 129.5 | 129.5 | the radioactivity was decreased |  |  |  |  |  | 
C/C(=C\CNc1ncnc2nc[nH]c12)CO [trans-zeatin, reference compound] |  |  |  |  |  | the radioactivity was decreased |  |  |  |  |  | 
OCCNc1nc(-c2ccccc2)c2cc(Cl)ccc2n1 [Ic3-1, 6-chloro-2-(2-hydroxyethylamino)-4-phenylquinazoline] | 114.1 | 5.4 |  |  |  |  | 137.9 | 17 | 20 | adventitious roots were formed | 94.6 | 119
